From patent US9273057B2 (Bristol-Myers Squibb Company, priority 2012, dated 2016)

Biological target: CK2A1 (CK2α/β) (Homo sapiens, UniProt P68400)
Assay: CK2 kinase assay, CK2A1 (CK2α/β)
Format: biochemical
Settings: Table A; read-out: CK2A1 (CK2α/β) (IC50)

Chain of CK2A1 (CK2α/β) (P68400 whole entry, species assumed): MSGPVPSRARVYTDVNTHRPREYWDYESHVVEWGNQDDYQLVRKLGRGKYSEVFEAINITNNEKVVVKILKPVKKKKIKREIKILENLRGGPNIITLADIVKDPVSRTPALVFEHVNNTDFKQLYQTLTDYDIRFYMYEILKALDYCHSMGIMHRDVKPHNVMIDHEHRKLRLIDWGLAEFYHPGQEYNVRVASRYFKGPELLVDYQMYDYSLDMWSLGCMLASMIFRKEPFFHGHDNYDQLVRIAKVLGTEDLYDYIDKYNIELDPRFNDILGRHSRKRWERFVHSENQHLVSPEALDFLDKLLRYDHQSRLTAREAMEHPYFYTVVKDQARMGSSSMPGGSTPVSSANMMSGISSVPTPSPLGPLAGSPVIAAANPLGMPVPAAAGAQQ
Chain of CK2A1 (CK2α/β) (P67870 whole entry partner, species assumed): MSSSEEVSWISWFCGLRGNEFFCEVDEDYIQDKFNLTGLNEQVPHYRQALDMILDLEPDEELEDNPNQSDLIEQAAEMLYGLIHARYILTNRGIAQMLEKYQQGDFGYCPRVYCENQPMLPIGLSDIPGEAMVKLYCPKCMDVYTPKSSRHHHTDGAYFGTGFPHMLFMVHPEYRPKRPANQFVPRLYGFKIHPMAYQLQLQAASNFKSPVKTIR

SMILES | IC50 [nM]
N#Cc1cc(Nc2nc(NC3CC3)c3ncc(C#N)n3n2)c(Cl)c(N2CCN(CC(=O)NS(=O)(=O)C3CC3)CC2)c1 [Example 599, 2-[4-(2-chloro-5-cyano-3-{[7-cyano-4-(cyclopropylamino)imidazo [2,1-f][1,2,4]triazin-2-yl]amino}phenyl)piperazin-1-yl]-N-(cyclopropanesulfonyl) acetamide] | 0.4
CCNc1nc(Nc2ccc3c(c2)c(C#N)cn3C2CCN(C3CN(C[C@@H](C)O)C3)CC2)nn2c(C#N)cnc12 [Example 833, (R)-2-((3-cyano-1-(1-(1-(2-hydroxypropyl)azetidin-3-yl)piperidin-4-yl)-1H-indol-5-yl)amino)-4-(ethylamino)imidazo[2,1-f][1,2,4]triazine-7-carbonitrile] | 1.81
N#Cc1cc(Nc2nc(NC3CC3)c3ncc(C#N)n3n2)c(Cl)c(C2(O)CCNC2)c1 (stereo not drawn) [Example 651, 2-((2-chloro-5-cyano-3-(3-hydroxypyrrolidin-3-yl)phenyl)amino)-4-(cyclopropylamino)imidazo[2,1-f][1,2,4]triazine-7-carbonitrile] | 1.51
CC(C)(CO)C(=O)N1CC(N2CCN(c3cc(C#N)cc(Nc4nc(NC5CC5)c5ncc(C#N)n5n4)c3Cl)CC2)C1 [Example 494, 2-[(2-chloro-5-cyano-3-{4-[1-(3-hydroxy-2,2-dimethylpropanoyl)azetidin-3-yl]piperazin-1-yl}phenyl)amino]-4-(cyclopropylamino)imidazo[2,1-f][1,2,4]triazine-7-carbonitrile] | 1.99
CCNc1nc(Nc2cc(C#N)cc(N3CC[C@@H]4[C@@H](C3)OC(=O)N4[C@H]3CCOC3)c2Cl)nn2c(C#N)cnc12 (single isomer, unassigned) [Example 843] | 2.16
CCNc1nc(Nc2ccc3c(c2)c(C#N)cn3C2CCN(C3CN(C4COC4)C3)CC2)nn2c(C#N)cnc12 [Example 835, 2-((3-cyano-1-(1-(1-(oxetan-3-yl)azetidin-3-yl)piperidin-4-yl)-1H-indol-5-yl)amino)-4-(ethylamino)imidazo[2,1-f][1,2,4]triazine-7-carbonitrile] | 0.98
N#Cc1cc(CN2CCNCC(O)C2)c(Cl)c(Nc2nc(NC3CC3)c3ncc(C#N)n3n2)c1 (stereo not drawn) [Example 669, 2-((2-chloro-5-cyano-3-((6-hydroxy-1,4-diazepan-1-yl)methyl)phenyl)amino)-4-(cyclopropylamino)imidazo[2,1-f][1,2,4]triazine-7-carbonitrile] | 0.52
COC(=O)N[C@@H]1CN(c2cc(C#N)cc(Nc3nc(NC4CC4)c4ncc(C#N)n4n3)c2Cl)C[C@@H]1C [Example 293, methyl ((3S,4S)-1-(2-chloro-5-cyano-3-((7-cyano-4-(cyclopropylamino)imidazo[2,1-f][1,2,4]triazin-2-yl)amino)phenyl)-4-methyl-3-pyrrolidinyl)carbamate] | 1.89
CCNc1nc(Nc2cc(C#N)cc(N3CCC(N)CC3)c2Cl)nn2c(C#N)cnc12 [Example 329, 2-((3-(4-aminopiperidin-1-yl)-2-chloro-5-cyanophenyl)amino)-4-(ethylamino)imidazo[2,1-f][1,2,4]triazine-7-carbonitrile] | 0.34
CCNc1nc(Nc2cc(C#N)cc(N3CCC(NC(=O)OC)C(N[C@@H](C)C(N)=O)C3)c2Cl)nn2c(C#N)cnc12 (stereo in doubt) [Example 762, methyl N-[(3R,4S)-3-[(1-carbamoylethyl)amino]-1-(2-chloro-5-cyano-3-{[7-cyano-4-(ethylamino)imidazo[2,1-f][1,2,4]triazin-2-yl]amino}phenyl)piperidin-4-yl]carbamate] | 2.1
CCNc1nc(Nc2cc(C#N)cc(N3CC[C@@H](NC(=O)OC)[C@H](O)C3)c2F)nn2c(C#N)cnc12 [Example 381, methyl ((3R,4R)-1-(5-cyano-3-((7-cyano-4-(ethylamino)imidazo[2,1-f][1,2,4]triazin-2-yl)amino)-2-fluorophenyl)-3-hydroxypiperidin-4-yl)carbamate] | 0.53
N#Cc1cc(Nc2nc(NC3CC3)c3ncc(C#N)n3n2)c(Cl)c(N2CC[C@@H](NC(=O)N3CCOCC3)[C@H](O)C2)c1 (racemic) [Example 181, (+/−)-N-((3R,4R)-1-(2-chloro-5-cyano-3-((7-cyano-4-(cyclopropylamino)imidazo[2,1-f][1,2,4]triazin-2-yl)amino)phenyl)-3-hydroxypiperidin-4-yl)morpholine-4-carboxamide] | 0.88
N#Cc1cnc2c(NC3CC3)nc(Nc3cc(C(F)F)cc(N4CCC(N5CC(F)C5)CC4)c3Cl)nn12 [Example 258, 2-((2-chloro-5-(difluoromethyl)-3-(4-(3-fluoro-1-azetidinyl)-1-piperidinyl)phenyl)amino)-4-(cyclopropylamino)imidazo[2,1-f][1,2,4]triazine-7-carbonitrile] | 1.93
CCC(C)(O)CC(=O)N1CC(N2CCN(c3cc(C#N)cc(Nc4nc(NC5CC5)c5ncc(C#N)n5n4)c3Cl)CC2)C1 (stereo not drawn) [Example 508, 2-[(2-chloro-5-cyano-3-{4-[1-(3-hydroxy-3-methylpentanoyl)azetidin-3-yl]piperazin-1-yl}phenyl)amino]-4-(cyclopropylamino)imidazo[2,1-f][1,2,4]triazine-7-carbonitrile] | 4.73

Now from value to compound:

IC50 [nM] | SMILES
22 | N#Cc1cc(Nc2nc(NC3CC3)c3ncc(C#N)n3n2)c(Cl)c(N2CCC(NCC3CC3)CC2)c1 [Example 136, 2-((2-chloro-5-cyano-3-(4-((cyclopropylmethyl)amino)-1-piperidinyl)phenyl)amino)-4-(cyclopropylamino)imidazo [2,1-f][1,2,4]triazine-7-carbonitrile]
0.67 | N#Cc1cc(CN2CCC3(CC2)COC3)c(Cl)c(Nc2nc(NC3CC3)c3ncc(C#N)n3n2)c1 [Example 665, 2-((3-(2-oxa-7-azaspiro[3.5]nonan-7-ylmethyl)-2-chloro-5-cyanophenyl)amino)-4-(cyclopropylamino)imidazo[2,1-f][1,2,4]triazine-7-carbonitrile]
0.91 | N#Cc1cc(Nc2nc(NC3CC3)c3ncc(C#N)n3n2)c(Cl)c(N2CCN([C@@H]3CS(=O)(=O)C[C@H]3O)CC2)c1 (racemic) [Example 535, rac-2-((2-chloro-5-cyano-3-(4-((3R,4R)-4-hydroxy-1,1-dioxidotetrahydrothiophen-3-yl)piperazin-1-yl)phenyl)amino)-4-(cyclopropylamino)imidazo[2,1-f][1,2,4]triazine-7-carbonitrile]
7.56 | N#Cc1cc(Nc2nc(NC3CC3)c3ncc(C#N)n3n2)c(Cl)c(N2CCN([C@H]3CCC[C@@H]3O)CC2)c1 [Example 589, 2-[(2-chloro-5-cyano-3-{4-[(1S,2S)-2-hydroxycyclopentyl]piperazin-1-yl}phenyl)amino]-4-(cyclopropylamino)imidazo [2,1-f][1,2,4]triazine-7-carbonitrile]
0.85 | N#Cc1cc(Nc2nc(NC3CC3)c3ncc(C#N)n3n2)c(Cl)c(N2CCN(CC3COCCO3)CC2)c1 (stereo not drawn) [Example 532, 2-((3-(4-((1,4-dioxan-2-yl)methyl)piperazin-1-yl)-2-chloro-5-cyanophenyl)amino)-4-(cyclopropylamino)imidazo[2,1-f][1,2,4]triazine-7-carbonitrile]
3.48 | CC(=O)N1CCC2CN(c3cc(C#N)cc(Nc4nc(NC5CC5)c5ncc(C#N)n5n4)c3Cl)CCC21 (stereo not drawn) [Example 446, 2-((3-(1-acetylhexahydro-1H-pyrrolo[3,2-c]pyridin-5(6H)-yl)-2-chloro-5-cyanophenyl)amino)-4-(cyclopropylamino)imidazo[2,1-f][1,2,4]triazine-7-carbonitrile]
0.73 | N#Cc1cc(Nc2nc(NC3CC3)c3ncc(C#N)n3n2)c(Cl)c(OC2CCN(C3COC3)CC2)c1 [Example 425, 2-((2-chloro-5-cyano-3-((1-(oxetan-3-yl)piperidin-4-yl)oxy)phenyl)amino)-4-(cyclopropylamino)imidazo[2,1-f][1,2,4]triazine-7-carbonitrile]
0.67 | N#CCNC1CCN(c2cc(C#N)cc(Nc3nc(NC4CC4)c4ncc(C#N)n4n3)c2Cl)CC1 [Example 141, 2-((2-chloro-5-cyano-3-(4-((cyanomethyl)amino)-1-piperidinyl)phenyl)amino)-4-(cyclopropylamino)imidazo [2,1-f][1,2,4]triazine-7-carbonitrile]
3.9 | C[C@H](O)CC(=O)N1CC(N2CCN(c3cc(C#N)cc(Nc4nc(NC5CC5)c5ncc(C#N)n5n4)c3Cl)CC2)C1 [Example 514, 2-{[2-chloro-5-cyano-3-(4-{1-[(3S)-3-hydroxybutanoyl]azetidin-3-yl}piperazin-1-yl)phenyl]amino}-4-(cyclopropylamino)imidazo[2,1-f][1,2,4]triazine-7-carbonitrile]
0.59 | CO[C@@H]1CN(c2cc(C#N)cc(Nc3nc(NC4CC4)c4ncc(C#N)n4n3)c2Cl)C[C@@H]1NC(=O)OC1COC1 [Example 291, 3-oxetanyl ((3S,4R)-1-(2-chloro-5-cyano-3-((7-cyano-4-(cyclopropylamino)imidazo[2,1-f][1,2,4]triazin-2-yl)amino)phenyl)-4-methoxy-3-pyrrolidinyl)carbamate]
0.64 | N#Cc1cc(Nc2nc(NC3CC3)c3ncc(C#N)n3n2)c(Cl)c(N2C[C@@H]3CCCN[C@@H]3C2)c1 (racemic) [Example 777, (+/−)-2-((2-chloro-5-cyano-3-((4aS,7aS)-hexahydro-1H-pyrrolo[3,4-b]pyridin-6(2H)-yl)phenyl)amino)-4-(cyclopropylamino)imidazo[2,1-f][1,2,4]triazine-7-carbonitrile]
2.43 | N#Cc1cc(CN2CCC(F)(F)CC2)c(Cl)c(Nc2nc(NC3CC3)c3ncc(C#N)n3n2)c1 [Example 477, 2-({2-chloro-5-cyano-3-[(4,4-difluoropiperidin-1-yl)methyl]phenyl}amino)-4-(cyclopropylamino)imidazo[2,1-f][1,2,4]triazine-7-carbonitrile]
0.53 | N#Cc1cc(Nc2nc(NC3CC3)c3ncc(C#N)n3n2)c(Cl)c(N2CCN3CCC2C3)c1 (stereo not drawn) [Example 8, 2-((2-chloro-5-cyano-3-(1,4-diazabicyclo[3.2.1]oct-4-yl)phenyl)amino)-4-(cyclopropylamino)imidazo [2,1-f][1,2,4]triazine-7-carbonitrile]
